Test results reported in publication PMC6723352, “Exploring Structure-Activity Relationship in Tacrine-Squaramide Derivatives as Potent Cholinesterase Inhibitors” (Biomolecules, 2019).
Read-outs that look alike come from different tables or passages of the source.

How the values were obtained:
[1] = target: T1, human AChE (hAChE), recombinant acetylcholinesterase (Homo sapiens, UniProt P22303); test: hAChE inhibition, modified Ellman's method; format: biochemical; conditions: for SI (selectivity index for hAChE): ratio IC50(hBChE)/IC50(hAChE); for times more potent than reference (hAChE): 3a vs THA, 5d vs 7-MEOTA
T1 construct: made in house
Description: Three series of tacrine-squaramide homodimers were tested for their inhibitory potential against human AChE (hAChE) and human BChE (hBChE) enzymes using modified spectrophotometric method of Ellman et al.. THA, 6-Cl-THA and 7-MEOTA were used as reference compounds. […].
(§1) Human plasmatic butyrylcholinesterase (BChE; EC 3.1.1.8) and recombinant acetylcholinesterase (AChE; 3.1.1.7) were prepared at the Department of Toxicology and Military Pharmacy. 5,5′-dithiobis(2-nitrobenzoic acid) (Ellman’s reagent, DTNB), phosphate buffer (PB, pH 7.4), acetylthiocholine (ATC) and butyrylthiocholine (BTC), were purchased from Sigma-Aldrich, Prague, Czech Republic. For measuring purposes – polystyrene Nunc 96-well microplates with flat bottom shape (ThermoFisher Scientific, USA) were utilized.
(§2) All the assays were carried out in 0.1 M KH2PO4/K2HPO4 buffer, pH 7.4. Enzyme solutions were prepared at 2.0 units/mL in 2 mL aliquots. The assay medium (100 µL) consisted of 40 µL of 0.1 M phosphate buffer (pH 7.4), 20 µL of 0.01 M DTNB, 10 µL of the enzyme, and 20 µL of 0.01 M substrate (ATC/BTC iodide solution).
(§3) Tested compounds were preincubated for 5 min. The reaction was started by immediate addition of 20 µL of the substrate. The activity was determined by measuring the increase in absorbance at 412 for AChE/BChE at 37 °C at 2 min intervals - using a Multi-mode microplate reader Synergy 2 (Winooski, VT, USA). Each concentration was assayed in triplicate. Software GraphPad Prizm 5 (San Diego, CA, USA) was used for the statistical data evaluation.

[2] = for Pe: PAMPA, PBS pH 7.4; for BBB permeation prediction in words: PAMPA-BBB; for CNS (+/−) predicted BBB permeation: class from Pe
Source text: An important feature for drugs targeting the brain is their ability to cross the BBB. The parallel artificial membrane permeability assay (PAMPA) is a high-throughput screening tool applicable for prediction of passive transport across BBB [57]. […] These include mainly (i) the different composition of the human phospholipid bilayer may cause deviation in predicted permeability, (ii) omitting the absorption of compounds that are actively transported by influx transporters and pumped-out by various efflux mechanisms with the glycoprotein P at the forefront or (iii) transport through the paracellular route which is mostly exploited by small […] molecules. Even considering these drawbacks, PAMPA-BBB is conceived as very simple but powerful tool for BBB prediction.
PAMPA (the parallel artificial membrane permeability assay) is a high-throughput screening tool applicable for prediction of the passive transport of potential drugs across the blood-brain barrier (BBB). In this study, it has been used as a non-cell-based in vitro assay carried out in a coated 96-well membrane filter. The filter membrane of the donor plate was coated with PBL (Polar Brain Lipid, Avanti, USA) in dodecane (4 µl of 20 mg/mL PBL in dodecane) and the acceptor well was filled with 300 µl of phosphate buffer saline, (PBS pH 7.4; VA). The tested compounds were dissolved first in DMSO and then diluted with PBS pH 7.4 to reach the final concentrations 50–500 µM in the donor well. […] In principle, test compound diffuse from the donor well through the polar brain lipid membrane (area = 0.28 cm^2) to the acceptor well. The concentration of the tested compound in both donor and the acceptor wells were assessed after 3, 4, 5 and 6 h of incubation in quadruplicate using the UV plate reader Synergy HT (Biotek, USA) at the maximum absorption wavelength of each compound (n = 3). Besides that, the solution of theoretical compound concentration, simulating the equilibrium state, established if the membrane was ideally permeable was prepared and assessed as well.

in vitro = conditions: human
Description: The human origin cell line HepG2 (ATCC, Mannassas, VA, USA) isolated from liver hepatocellular carcinoma was used to evaluate cytotoxicity of tested compounds. The cells were cultivated in Dublecco’s modified Eagle’s medium (DMEM; Biosera, Nuaille, France) supplemented with 10% fetal bovine serum (Biosera) and 1% penicillin-streptomycin antibiotic solution (Sigma-Aldrich, St. Louis, MO, USA), incubated at 37 °C in a CO2 incubator (Binder CO2 incubator BC 160, Tuttlingen, Germany) and routinely passaged by trypsinization at 75–85% confluence.
The final concentration of DMSO was less than 0.25% per well.
After 24-h incubation, the medium containing serially diluted substances was aspirated from each well and replaced by 100 µL of fresh medium containing MTT (0.5 mg/mL). Plates were subsequently incubated at 37 °C in CO2 incubator for 45 min. The medium containing MTT was then aspirated and formazan dissolved in 100 μL of DMSO. The optical density of each well was measured using Synergy 2 Multi-Mode Microplate Reader (BioTek Instruments, Inc., Winooski, VT, USA) at 570 nm. The cell viability was expressed as the percentage of untreated control. Each experiment was performed in triplicate and repeated three independent times.
The IC50 values were expressed as a mean ± standard error of the mean (SEM).

[3] = target: human BChE (hBChE), human plasmatic butyrylcholinesterase (Homo sapiens, UniProt P06276); test: hBChE inhibition, modified Ellman's method; format: biochemical
Description: Three series of tacrine-squaramide homodimers were tested for their inhibitory potential against human AChE (hAChE) and human BChE (hBChE) enzymes using modified spectrophotometric method of Ellman et al.. THA, 6-Cl-THA and 7-MEOTA were used as reference compounds.
as §1, §2, §3

[4] = mean of at least three experiments, read-out: IC50 hBChE

T1 sequence (P22303 32-614): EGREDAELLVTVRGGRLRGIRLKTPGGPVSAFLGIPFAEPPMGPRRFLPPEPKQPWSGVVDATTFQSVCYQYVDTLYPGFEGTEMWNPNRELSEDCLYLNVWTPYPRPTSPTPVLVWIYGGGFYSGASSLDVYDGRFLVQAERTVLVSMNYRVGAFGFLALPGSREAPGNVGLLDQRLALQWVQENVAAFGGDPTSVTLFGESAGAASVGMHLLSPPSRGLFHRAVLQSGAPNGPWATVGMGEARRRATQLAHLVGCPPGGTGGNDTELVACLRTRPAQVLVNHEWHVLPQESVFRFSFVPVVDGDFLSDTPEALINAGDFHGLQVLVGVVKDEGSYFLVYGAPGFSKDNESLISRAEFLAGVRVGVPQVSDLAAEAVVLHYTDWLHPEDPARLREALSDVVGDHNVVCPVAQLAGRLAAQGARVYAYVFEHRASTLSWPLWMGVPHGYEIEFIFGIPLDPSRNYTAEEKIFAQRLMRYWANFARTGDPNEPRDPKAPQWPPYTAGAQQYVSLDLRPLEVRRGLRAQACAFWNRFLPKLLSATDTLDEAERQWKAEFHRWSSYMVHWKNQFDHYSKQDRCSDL
Sequence of human BChE (hBChE), human plasmatic butyrylcholinesterase (P06276 29-602): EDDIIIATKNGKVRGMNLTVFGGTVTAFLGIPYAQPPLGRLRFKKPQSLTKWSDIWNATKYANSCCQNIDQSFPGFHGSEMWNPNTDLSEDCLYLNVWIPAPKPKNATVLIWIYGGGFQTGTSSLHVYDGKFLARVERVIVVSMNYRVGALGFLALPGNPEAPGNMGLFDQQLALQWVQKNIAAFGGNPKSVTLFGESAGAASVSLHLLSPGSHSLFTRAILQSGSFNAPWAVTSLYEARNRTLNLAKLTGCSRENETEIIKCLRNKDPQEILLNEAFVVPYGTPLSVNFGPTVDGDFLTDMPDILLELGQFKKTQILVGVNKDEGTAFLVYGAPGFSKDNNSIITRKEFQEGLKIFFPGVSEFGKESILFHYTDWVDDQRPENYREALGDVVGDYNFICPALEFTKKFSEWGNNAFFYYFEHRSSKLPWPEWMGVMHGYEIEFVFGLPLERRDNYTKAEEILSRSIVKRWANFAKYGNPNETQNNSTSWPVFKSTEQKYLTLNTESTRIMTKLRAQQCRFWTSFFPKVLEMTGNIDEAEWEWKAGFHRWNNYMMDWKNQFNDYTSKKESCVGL

Row | SMILES | IC50 [1] [nM] | SI (selectivity index for hAChE) [1] | Pe [2] [×10⁻⁶ cm/s] | BBB permeation prediction in words [2] | CNS (+/−) predicted BBB permeation [2] | IC50 at 24 h (in vitro) [nM] | IC50 [3, 4] [nM] | times more potent than reference (hAChE) [1] [times] | IC50 [3] [nM]
1 | O=c1c(NCCCCCCNc2c3c(nc4cc(Cl)ccc24)CCCC3)c(NCCCCCCNc2c3c(nc4cc(Cl)ccc24)CCCC3)c1=O [Compound 4e, Bis({6-[(6-chloro-1,2,3,4-tetrahydroacridin-9-yl)amino]hexyl}amino)cyclobut-3-ene-1,2-dione] | 3.2 | 170 | 17 | high probability to cross the BBB | CNS + (CNS +: high BBB permeation predicted with Pe (10^−6 cm·s^−1) > 4.0) | > 64000 | 540 | – | –
2 | O=c1c(NCCNc2c3c(nc4ccccc24)CCCC3)c(NCCNc2c3c(nc4ccccc24)CCCC3)c1=O [Compound 3a, Bis({2-[(1,2,3,4-tetrahydroacridin-9-yl)amino]ethyl}amino)cyclobut-3-ene-1,2-dione] | 3.8 | 16 | 1.1 | cannot presumably cross the BBB | CNS − (CNS −: low BBB permeation predicted with Pe (10^−6 cm·s^−1) < 2.0) | > 256000 | – | 84 | 62
3 | COc1ccc2nc3c(c(NCCNc4c(NCCNc5c6c(nc7ccc(OC)cc57)CCCC6)c(=O)c4=O)c2c1)CCCC3 [Compound 5a, Bis({2-[(7-methoxy-1,2,3,4-tetrahydroacridin-9-yl)amino]ethyl}amino)cyclobut-3-ene-1,2-dione] | 170 | 0.7 | 2.3 | uncertain BBB permeation | CNS +/− (CNS +/−: BBB permeation uncertain with Pe (10^−6 cm·s^−1) from 4.0 to 2.0) | > 256000 | 130 | – | –
4 | O=c1c(NCCNc2c3c(nc4cc(Cl)ccc24)CCCC3)c(NCCNc2c3c(nc4cc(Cl)ccc24)CCCC3)c1=O [Compound 4a, Bis({2-[(6-chloro-1,2,3,4-tetrahydroacridin-9-yl)amino]ethyl}amino)cyclobut-3-ene-1,2-dione] | 4.2 | 36 | – | – | – | > 128000 | 150 | – | –
5 | COc1ccc2nc3c(c(NCCCCCCCCNc4c(NCCCCCCCCNc5c6c(nc7ccc(OC)cc57)CCCC6)c(=O)c4=O)c2c1)CCCC3 [Compound 5g, Bis({8-[(7-methoxy-1,2,3,4-tetrahydroacridin-9-yl)amino]octyl}amino)cyclobut-3-ene-1,2-dione] | 490 | 5.9 | – | – | – | 3500 | 2900 | – | –
6 | COc1ccc2nc3c(c(NCCCCCNc4c(NCCCCCNc5c6c(nc7ccc(OC)cc57)CCCC6)c(=O)c4=O)c2c1)CCCC3 [Compound 5d, Bis({5-[(7-methoxy-1,2,3,4-tetrahydroacridin-9-yl)amino]pentyl}amino)cyclobut-3-ene-1,2-dione] | 120 | 5.7 | 1.3 | cannot presumably cross the BBB | CNS − (CNS −: low BBB permeation predicted with Pe (10^−6 cm·s^−1) < 2.0) | 98000 | – | 83 | 680
